For series [1], the system named is amphetamine deaths. The series can be described thus: Amphetamine toxicity in mice. As to conditions: for ratio of number of dead animals to number of starting animals: mortality at 4 h. The class given is in vivo, mice (female). The protocol: The test was effected on group of 10 female mice weighing between 18 and 22 g kept at 27° C for the duration of the test. The test products were intraperitoneally administered in different doses in a volume of 0.01 ml /g of mouse. One hour later, the mice received an injection of 15 mg/kg of a solution of 1.5 mg of amphetamine per ml of physiological serum. The mortality 4 hours after the amphetamine injection was determined and the results were expressed as a ratio of number of dead animals to number of starting animals.

In series [2] the test system is pentamethylenetetrazol convulsions. The experiment in a line: Anticonvulsant effect (pentamethylenetetrazol perfusion). The class given is in vivo, mice (female). As to conditions: 1 h before perfusion. The protocol:
The anticonvulsant activity of the compounds was determined on groups of 10 female mice with intraperitoneal administration of the test compounds in acid solution at different doses and the control group received only the solvent. One hour after the injection, the mice were perfused with a solution of pentamethylenetetrazol in physiological serum at a concentration of 3 mg/ml. The perfusion was intraveinous at a rate of 1 ml per minute and in the course of the perfusion, the progress of introxication was characterized by the following 3 criteria:
a. Threshold of convulsant effect (myoclonia of the ears)
b. Crisis of clonic convulsions
c. Tonic convulsion with apnea and generally followed by death.

For series [3], the system named is DOPA. The series can be described thus: Potentialization of DOPA. Format: in vivo, mice (male). As to conditions: 1 h before 50 mg/kg DOPA. Here is the method: In this test, DOPA [racemic β-(3,4-dihydroxyphenyl)-alanine] was administered to mice pretreated with 1-isonicotinoyl-2-isopropyl-hydrazine18 hours before the test which product caused the following symptoms: hypertonicity, agitation, crying, aggressiveness, salivation and exophthalmia. The administration of an antidepressant one hour before the DOPA injection potentializes the intensity of the effects.
Male mice weighing between 18 to 22 g received intraperitoneally 50 mg/kg of 1-isonicotinoyl-2-isopropyl-hydrazine and 18 hours later the test product intraperitoneally in aqueous solution in increasing doses and 1 hour later received an intraperitoneal injection of 50 mg/kg of DOPA. The different effects were evaluated 15 and 30 minutes after the DOPA injection and each symptom was evaluated for each animal on a scale from 0 to 3 and the evaluations for each dose was totaled. The totals are reported in Table III as a percent of the total of control animals.

Series [4] has as its system amytal sleeping time. The series can be described thus: Potentialization of sleeping time (amytal). As to conditions: 1 h before 80 mg/kg amytal i.v. Format: in vivo, mice (female). The protocol: The potentialization of sleeping time was determined with a test using amytal [5-ethyl-5-isoamyl-barbituric acid] in which groups of female mice weighing between 18 and 22 g were kept at 25° C for the duration of the test. The test products were administered intraperitoneally at different doses one hour before intraveinous injection of 80 mg/kg of amytal and the sleeping time was noted which is the time while the reflux of straightening in the mice was negative.

Series [5] can be described thus: Acute toxicity. As to conditions: mouse, in vivo, ip, Swiss mice, observed for a week. Here is the method:
The acute toxicity was determined on groups of Swiss mice weighing 18 to 22 g and the test products were administered intraperitoneally in increasing doses and the animals were kept under observation for a week.

[6] abbreviates: 5 mg/Kg i.p., 1 h before 15 mg/kg amphetamine.
The mark [7] stands for this setting: 10 mg/Kg i.p., 1 h before 15 mg/kg amphetamine.
Setting [8] is: 20 mg/Kg i.p., 1 h before 15 mg/kg amphetamine.

The record followed here is patent US4009273A, “Substituted 10,11-dihydro-5,10-imino-[5H] dibenzo (a,d)-cycloheptene” (priority 1972, dated 1977).

The structures appear in SMILES notation. Several values for one entry are separate records, joined by “and”; a condition that tells them apart may be missing. Identical values can stand only once.

One may read the LD50 as the dose at which mortality reaches 50%. A higher LD50 goes with a less toxic substance.

For the compound `CCN1C2Cc3ccccc3C1c1ccccc12` (stereo not drawn) [Example 21, 12-ethyl-10,11-dihydro-5,10-imino-[5H]-dibenzo (a,d) cycloheptene dl], the “ratio of number of dead animals to number of starting animals” value (shortened to “ratio of number of dead animals”) in series [1] (setting [6]) is on record as 10/10; in series [1] (setting [7]), 6/10; in series [1] (setting [8]), 0/10; in series [1] (head prints only "mg/Kg" (dose figure missing), i.p.) it was 0/10. Moreover, the “Dose of pentamethylenetetrazol, Clonic Crisis” value (from here on “Dose … Clonic Crisis”) in series [2] (1 mg/Kg i.p.) came to 48.3 mg/kg; in series [2] (2 mg/Kg i.p.) it was 47.7 mg/kg; in series [2] (5 mg/Kg i.p.), 57.0 mg/kg. For the same compound, the “Dose of pentamethylenetetrazol, Myoclonia” value (“Dose … Myoclonia” for short) in series [2] (1 mg/Kg i.p.) was 42.9 mg/kg; in series [2] (2 mg/Kg i.p.) it was 42.3 mg/kg; in series [2] (5 mg/Kg i.p.) it was 49.6 mg/kg. The “Dose of pentamethylenetetrazol, Tonic Crisis” value (“Dose … Tonic Crisis” for short) in series [2] (1 mg/Kg i.p.) amounted to 168.2 mg/kg; in series [2] (2 mg/Kg i.p.) it was 206.2 mg/kg; in series [2] (5 mg/Kg i.p.), 238.1 mg/kg. For the same compound, the “total symptom score as percent of the total of control animals” value (“total symptom score as percent” below) in series [3] (1 mg/Kg i.p.) is 187%; in series [3] (2 mg/Kg i.p.), 175%; in series [3] (5 mg/Kg i.p.), 181%. In addition, the average sleeping time in series [4] (1 mg/Kg i.p.) came to 32.1 min; in series [4] (2 mg/Kg i.p.), 39.6 min; in series [4] (5 mg/Kg i.p.), 58.1 min; in series [4] (10 mg/Kg i.p.) it was 71.5 min.
Take `CCCN1C2Cc3ccccc3C1c1ccccc12` (stereo not drawn) [Example 24, 12-n-propyl-10,11-dihydro-5,10-imino[5H]-dibenzo (a,d) cycloheptene dl]: the “ratio of number of dead animals” value in series [1] (setting [6]) was 10/10; in series [1] (setting [7]), 9/10; in series [1] (setting [8]), 3/10. In addition, the “Dose … Clonic Crisis” value in series [2] (1 mg/Kg i.p.) amounted to 61.8 mg/kg; in series [2] (2 mg/Kg i.p.), 57.3 mg/kg; in series [2] (5 mg/Kg i.p.) it was 60.0 mg/kg; in series [2] (10 mg/Kg i.p.), 78.4 mg/kg. For the same compound, the “Dose … Myoclonia” value was 54.2 mg/kg in series [2] (1 mg/Kg i.p.), 50.4 mg/kg in series [2] (2 mg/Kg i.p.), 51.4 mg/kg in series [2] (5 mg/Kg i.p.) and 57.7 mg/kg in series [2] (10 mg/Kg i.p.). Moreover, the “Dose … Tonic Crisis” value in series [2] (1 mg/Kg i.p.) came to 170.3 mg/kg; in series [2] (2 mg/Kg i.p.) it was 225.8 mg/kg; in series [2] (5 mg/Kg i.p.) it was 265.2 mg/kg; in series [2] (10 mg/Kg i.p.) it was 275.9 mg/kg. Further, the average sleeping time came to 38.6 min in series [4] (2 mg/Kg i.p.), 42.2 min in series [4] (5 mg/Kg i.p.), 65.1 min in series [4] (10 mg/Kg i.p.) and 103.7 min in series [4] (20 mg/Kg i.p.). Also, the median lethal dose (LD50) at 168 h in series [5] is roughly 250 mg/kg.
Turning to `OCCN1C2Cc3ccccc3C1c1ccccc12` (stereo not drawn) [Example 6, 12-(2'-hydroxyethyl)-10,11-dihydro-5,10-imino-[5H]-dibenzo (a,d) cycloheptene dl], the “ratio of number of dead animals” value was 3/10 in series [1] (setting [6]); 9/10 and 3/10 in series [1] (setting [7]); 0/10 in series [1] (setting [8]). For the same compound, the “Dose … Clonic Crisis” value in series [2] (0.5 mg/Kg i.p.) was found to be 42.9 mg/kg; in series [2] (1 mg/Kg i.p.) it was 45.7 mg/kg; in series [2] (2 mg/Kg i.p.), 43.5 mg/kg; in series [2] (5 mg/Kg i.p.), 45.5 mg/kg. Further, the “Dose … Myoclonia” value in series [2] (0.5 mg/Kg i.p.) came to 38.2 mg/kg; in series [2] (1 mg/Kg i.p.) it was 40.6 mg/kg; in series [2] (2 mg/Kg i.p.), 38.6 mg/kg; in series [2] (5 mg/Kg i.p.), 49.3 mg/kg. Also, the “Dose … Tonic Crisis” value in series [2] (0.5 mg/Kg i.p.) was 129.0 mg/kg; in series [2] (1 mg/Kg i.p.), 144.2 mg/kg; in series [2] (2 mg/Kg i.p.), 104.3 mg/kg; in series [2] (5 mg/Kg i.p.), 204.6 mg/kg. Besides, the “total symptom score as percent” value in series [3] (1 mg/Kg i.p.) came to 138%; in series [3] (2 mg/Kg i.p.), 155%; in series [3] (10 mg/Kg i.p.) it was 140%. Moreover, the LD50 at 168 h in series [5] worked out at 350 mg/kg.
Take `CN1C2Cc3ccccc3C1c1ccccc12` (stereo not drawn) [Example 15, 12-methyl-10,11-dihydro-5,10-imino-[5H]-dibenzo (a,d) cycloheptene dl]: the “ratio of number of dead animals” value in series [1] (1 mg/Kg i.p., 1 h before 15 mg/kg amphetamine) was 6/10; in series [1] (2 mg/Kg i.p., 1 h before 15 mg/kg amphetamine) it was 1/10; in series [1] (setting [6]) it was 0/10; in series [1] (setting [7]), 0/10; in series [1] (200γ/Kg i.p., 1 h before 15 mg/kg amphetamine), 10/10; in series [1] (500γ/Kg i.p., 1 h before 15 mg/kg amphetamine), 8/10. Further, the ED50 in series [1] (Mus musculus, ip, 4 h, i.p., mice, read-out: DA50 (dose which reduced by half the amphetamine deaths)) was found to be 1 mg/kg. The “Dose … Clonic Crisis” value is 44.0 mg/kg in series [2] (1 mg/Kg i.p.), 52.9 mg/kg in series [2] (2 mg/Kg i.p.), 43.0 mg/kg in series [2] (200γ/Kg i.p.) and 45.9 mg/kg in series [2] (500γ/Kg i.p.). Further, the “Dose … Myoclonia” value in series [2] (1 mg/Kg i.p.) stood at 38.1 mg/kg; in series [2] (2 mg/Kg i.p.), 46.7 mg/kg; in series [2] (200γ/Kg i.p.), 38.1 mg/kg; in series [2] (500γ/Kg i.p.), 41.1 mg/kg. In addition, the “Dose … Tonic Crisis” value was determined as 182.7 mg/kg in series [2] (1 mg/Kg i.p.), 231.8 mg/kg in series [2] (2 mg/Kg i.p.), 122.7 mg/kg in series [2] (200γ/Kg i.p.) and 134.9 mg/kg in series [2] (500γ/Kg i.p.). Moreover, the average sleeping time in series [4] (0.5 mg/Kg i.p.) is 33.9 min; in series [4] (1 mg/Kg i.p.) it was 32.9 min; in series [4] (2 mg/Kg i.p.), 30.6 min; in series [4] (5 mg/Kg i.p.) it was 42.9 min; in series [4] (10 mg/Kg i.p.) it was 78.6 min. The compound further had an LD50 at 168 h in series [5] of 175 mg/kg.
On to `CN(C)CC(=O)N1C2Cc3ccccc3C1c1ccccc12` (stereo not drawn) [Example 14, 12-dimethylaminoacetyl-10,11-dihydro-5,10-imino-[5H]-dibenzo (a,d) cycloheptene dl], for which the “total symptom score as percent” value in series [3] (10 mg/Kg i.p.) is 117%; in series [3] (20 mg/Kg i.p.), 160%; in series [3] (50 mg/Kg i.p.), 196%. In addition, in series [5], the 50% lethal dose (LD50) at 168 h was determined as 150 mg/kg.
